According to BindingDB's records for doi:10.1016/S0960-894X(01)80103-7 (1994):

Columns and labels:
[1] = In vitro thromboxane receptor antagonist activity was determined by inhibition of U-46619 induced aggregation of washed human platelets
[2] = as above; remark: listed apart in the source
[3] = as above; remark: listed apart in the source

SMILES | IC50 [1] [nM] | IC50 [2] [nM] | IC50 [3] [nM]
O=C(O)CC/C=C\CC[C@@H]1[C@@H](c2cccnc2)[S@+]([O-])C[C@H]1OCc1ccc(-c2ccccc2)cc1 | 77 | – | –
O=C(O)CC/C=C\CC[C@H]1[C@@H](OCc2ccc(-c3ccccc3)cc2)CS(=O)(=O)[C@@H]1c1cccnc1 [(Z)-7-[(2S,3S,4R)-4-(Biphenyl-4-ylmethoxy)-1,1-dioxo-2-pyridin-3-yl-tetrahydro-1lambda*6*-thiophen-3-yl]-hept-4-enoic acid] | 24 | – | –
O=C(O)CC/C=C\CC[C@@H]1[C@@H](c2cccnc2)S(=O)(=O)C[C@H]1OCc1ccc(-c2ccccc2)cc1 [(Z)-7-[(2S,3S,4S)-4-(Biphenyl-4-ylmethoxy)-1,1-dioxo-2-pyridin-3-yl-tetrahydro-1lambda*6*-thiophen-3-yl]-hept-4-enoic acid] | 18 | – | –
O=C(O)CC/C=C\CC[C@@H]1[C@@H](c2cccnc2)SC[C@H]1OCc1ccc(-c2ccccc2)cc1 [(Z)-7-[(2S,3S,4S)-4-(Biphenyl-4-ylmethoxy)-2-pyridin-3-yl-tetrahydro-thiophen-3-yl]-hept-4-enoic acid] | – | 46 | 22
O=C(O)CCC/C=C\C[C@@H]1[C@@H](c2cccnc2)SC[C@H]1OCc1ccc(-c2ccccc2)cc1 [(Z)-7-[(2S,3S,4S)-4-(Biphenyl-4-ylmethoxy)-2-pyridin-3-yl-tetrahydro-thiophen-3-yl]-hept-5-enoic acid] | 228 | – | –

Further lines, results first:

IC50 [1] [nM] | IC50 [2] [nM] | IC50 [3] [nM] | SMILES
105 | – | – | O=C(O)CC/C=C\CC[C@@H]1[C@@H](c2cccnc2)[S@@+]([O-])C[C@H]1OCc1ccc(-c2ccccc2)cc1
57 | – | – | O=C(O)CC/C=C\CC[C@H]1[C@@H](OCc2ccc(-c3ccccc3)cc2)C[S+]([O-])[C@@H]1c1cccnc1 (stereo partly drawn) [(Z)-7-[(2S,3S,4R)-4-(Biphenyl-4-ylmethoxy)-1-oxo-2-pyridin-3-yl-tetrahydro-1lambda*4*-thiophen-3-yl]-hept-4-enoic acid]
46 | – | – | O=C(O)CC/C=C\CC[C@H]1[C@@H](OCc2ccc(-c3ccccc3)cc2)CS[C@@H]1c1cccnc1 [(Z)-7-[(2S,3S,4R)-4-(Biphenyl-4-ylmethoxy)-2-pyridin-3-yl-tetrahydro-thiophen-3-yl]-hept-4-enoic acid]
12 | – | – | O=C(O)CC/C=C\CC[C@@H]1[C@@H](N2CCCCC2)[C@@H](O)C[C@@H]1OCc1ccc(-c2ccccc2)cc1 [GR 32191]
